Reference: patent publication US10745396B2, “Pesticidally active polycyclic derivatives with sulfur containing substituents” (Syngenta Participations AG, priority 2015, dated 2020)

Columns and labels:
Format in all cases: in vivo
[1] = test system: Bemisia tabaci (Cotton White Fly); assay: Bemisia tabaci feeding/contact activity, cotton leaf discs; conditions: foliar, 144 h, application rate of 200 ppm, 6 days after incubation, adult white flies
Procedure: Example B1: Bemisia tabaci (Cotton White Fly): Feeding/Contact Activity
Cotton leaf discs were placed on agar in 24-well microtiter plates and sprayed with aqueous test solutions prepared from 10′000 ppm DMSO stock solutions. After drying the leaf discs were infested with adult white flies. The samples were checked for mortality 6 days after incubation.

[2] = test system: Plutella xylostella (Diamond Back Moth); assay: Plutella xylostella, artificial diet, L2 larvae; conditions: 120 h, application rate of 200 ppm, 5 days after infestation, read-out: effect in at least one of the two categories (mortality or growth inhibition)
Procedure: Example B7: Plutella xylostella (Diamond Back Moth)
(§1) 24-well microtiter plates with artificial diet were treated with aqueous test solutions prepared from 10′000 ppm DMSO stock solutions by pipetting. After drying, the plates were infested with L2 larvae (10 to 15 per well). The samples were assessed for mortality and growth inhibition in comparison to untreated samples 5 days after infestation.

[3] = test system: Diabrotica balteata (Corn Root Worm); assay: Diabrotica balteata, maize sprouts on agar, L2 larvae; conditions: 96 h, application rate of 200 ppm, 4 days after infestation, read-out: effect in at least one of the two categories (mortality or growth inhibition)
Procedure: Example B2: Diabrotica balteata (Corn Root Worm)
as §1, with “Maize sprouts placed onto an agar layer in 24-well” for “24-well”, “plates” for “plates with artificial diet”, “spraying.” for “pipetting.”, “(6” for “(10”, “10” for “15”, “4” for “5”

[4] = test system: Euschistus heros (Neotropical Brown Stink Bug); assay: Euschistus heros, soybean leaves on agar, N2 nymphs; conditions: 120 h, application rate of 200 ppm, 5 days after infestation, read-out: effect in at least one of the two categories (mortality or growth inhibition)
Procedure: Example B3: Euschistus heros (Neotropical Brown Stink Bug)
Soybean leaves on agar in 24-well microtiter plates were sprayed with aqueous test solutions prepared from 10′000 ppm DMSO stock solutions. After drying the leaves were infested with N2 nymphs. The samples were assessed for mortality and growth inhibition in comparison to untreated samples 5 days after infestation.

[5] = test system: Spodoptera littoralis (Egyptian Cotton Leaf Worm); assay: Spodoptera littoralis, cotton leaf discs, L1 larvae; conditions: foliar, 72 h, application rate of 200 ppm, 3 days after infestation
Procedure: Example B8: Spodoptera littoralis (Egyptian Cotton Leaf Worm)
Cotton leaf discs were placed onto agar in 24-well microtiter plates and sprayed with aqueous test solutions prepared from 10′000 ppm DMSO stock solutions. After drying the leaf discs were infested with five L1 larvae. The samples were assessed for mortality, anti-feeding effect, and growth inhibition in comparison to untreated samples 3 days after infestation. Control of Spodoptera littoralis by a test sample is given when at least one of the categories mortality, anti-feedant effect, and growth inhibition is higher than the untreated sample.

[6] = test system: Myzus persicae (Green Peach Aphid); assay: Myzus persicae feeding/contact activity, sunflower leaf discs; conditions: foliar, 144 h, application rate of 200 ppm, 6 days after infestation
Procedure: Example B5: Myzus persicae (Green Peach Aphid): Feeding/Contact Activity
(§2) Sunflower leaf discs were placed onto agar in a 24-well microtiter plate and sprayed with aqueous test solutions prepared from 10′000 ppm DMSO stock solutions. After drying, the leaf discs were infested with an aphid population of mixed ages. The samples were assessed for mortality 6 days after infestation.

[7] = test system: Myzus persicae (Green Peach Aphid); assay: Myzus persicae systemic activity, pea seedling roots in test solution; conditions: 144 h, test rate of 24 ppm, 6 days after placing seedlings into test solutions
Procedure: Example B6: Myzus persicae (Green Peach Aphid): Systemic Activity
Roots of pea seedlings infested with an aphid population of mixed ages were placed directly into aqueous test solutions prepared from 10′000 DMSO stock solutions. The samples were assessed for mortality 6 days after placing seedlings into test solutions.

[8] = test system: Thrips tabaci (Onion Thrips); assay: Thrips tabaci feeding/contact activity, sunflower leaf discs; conditions: foliar, 144 h, application rate of 200 ppm, 6 days after infestation
Procedure: Example B11: Thrips tabaci (Onion Thrips) Feeding/Contact Activity
as §2, with “on” for “onto”, “in” for “in a”, “plates” for “plate”, “drying” for “drying,”, “a thrips” for “an aphid”

[9] = test system: Spodoptera littoralis (Egyptian Cotton Leaf Worm); assay: Spodoptera littoralis, uptake by lettuce roots from agar, eggs; conditions: 144 h, test rate of 12.5 ppm, 6 days after infestation, read-out: effect in at least one of the three categories (mortality, anti-feeding, or growth inhibition)
Excerpt: Example B9: Spodoptera littoralis (Egyptian Cotton Leaf Worm)
Test compounds were applied by pipette from 10′000 ppm DMSO stock solutions into 24-well plates and mixed with agar. Lettuce seeds were placed onto the agar and the multi well plate was closed by another plate which contained also agar. After 7 days the compound was absorbed by the roots and the lettuce grew into the lid plate. The lettuce leaves were then cut off into the lid plate. Spodoptera eggs were pipetted through a plastic stencil onto a humid gel blotting paper and the lid plate was closed with it. The samples were assessed for mortality, anti-feedant effect and growth inhibition in comparison to untreated samples 6 days after infestation.

[10] = test system: Tetranychus urticae (Two-Spotted Spider Mite); assay: Tetranychus urticae feeding/contact activity, bean leaf discs; conditions: foliar, 192 h
Procedure: Example B10: Tetranychus urticae (Two-Spotted Spider Mite): Feeding/Contact Activity
Bean leaf discs on agar in 24-well microtiter plates were sprayed with aqueous test solutions prepared from 10′000 ppm DMSO stock solutions. After drying the leaf discs were infested with a mite population of mixed ages. The samples were assessed for mortality on mixed population (mobile stages) 8 days after infestation.

[11] = test system: Frankliniella occidentalis (Western Flower Thrips); assay: Frankliniella occidentalis feeding/contact activity, sunflower leaf discs; conditions: foliar, 168 h, application rate of 200 ppm, 7 days after infestation, population of mixed ages
Procedure: Example B4: Frankliniella occidentalis (Western Flower Thrips): Feeding/Contact Activity
Sunflower leaf discs were placed on agar in 24-well microtiter plates and sprayed with aqueous test solutions prepared from […] stock solutions. After drying the leaf discs were infested with a Frankliniella population of mixed ages. The samples were assessed for mortality 7 days after infestation.

CCn1c(C(F)(F)F)cc2nc(-c3nc(-n4ccc(C(F)(F)F)n4)ccc3S(=O)(=O)CC)n(C)c2c1=O [Compound P3, 5-ethyl-2-[3-ethylsulfonyl-6-[3-(trifluoromethyl)pyrazol-1-yl]-2-pyridyl]-3-methyl-6-(trifluoromethyl)imidazo[4,5-c]pyridin-4-one]
≥ 80%: mortality at 200 ppm [1] | percent effect (mortality or growth inhibition) at 200 ppm [2] | percent effect (mortality or growth inhibition) at 200 ppm [3] | percent effect (mortality or growth inhibition) at 200 ppm [4] | percent control (mortality, anti-feedant effect or growth inhibition) at 200 ppm [5]

CCS(=O)(=O)c1ccc(-n2cncn2)nc1-c1nc2cc(C(F)(F)F)n(C3CC3)c(=O)c2n1C [Compound P4, 5-cyclopropyl-2-[3-ethylsulfonyl-6-(1,2,4-triazol-1-yl)-2-pyridyl]-3-methyl-6-(trifluoromethyl)imidazo[4,5-c]pyridin-4-one]
≥ 80%: mortality at 200 ppm [1] | percent effect (mortality or growth inhibition) at 200 ppm [2] | percent effect (mortality or growth inhibition) at 200 ppm [3] | mortality at 200 ppm [6] | mortality at 24 ppm [7] | mortality at 200 ppm [8] | percent effect (mortality or growth inhibition) at 200 ppm [4] | percent effect (mortality, anti-feeding or growth inhibition) at 12.5 ppm [9] | mortality at 200 ppm [10] | percent control (mortality, anti-feedant effect or growth inhibition) at 200 ppm [5]

CCn1c(C(F)(F)F)cc2nc(-c3nc(-n4cncn4)ccc3S(=O)(=O)CC)n(C)c2c1=O [Compound P5]
≥ 80%: mortality at 200 ppm [1] | percent effect (mortality or growth inhibition) at 200 ppm [2] | percent effect (mortality or growth inhibition) at 200 ppm [3] | mortality at 200 ppm [6] | mortality at 24 ppm [7] | mortality at 200 ppm [8] | percent effect (mortality or growth inhibition) at 200 ppm [4] | percent effect (mortality, anti-feeding or growth inhibition) at 12.5 ppm [9] | percent control (mortality, anti-feedant effect or growth inhibition) at 200 ppm [5]

CCn1c(C(F)(F)F)cc2nc(-c3nc(C4CC4)ccc3S(=O)(=O)CC)n(C)c2c1=O [Compound P11]
≥ 80%: mortality at 200 ppm [1]

CCn1c(C(F)(F)F)cc2nc(-c3nc(-c4ccncc4)ccc3S(=O)(=O)CC)n(C)c2c1=O [Compound P13]
≥ 80%: percent effect (mortality or growth inhibition) at 200 ppm [2] | percent effect (mortality or growth inhibition) at 200 ppm [3] | mortality at 200 ppm [11] | percent control (mortality, anti-feedant effect or growth inhibition) at 200 ppm [5]

CCn1c(C(F)(F)F)cc2nc(-c3nc(-c4cccc(F)c4)ccc3S(=O)(=O)CC)n(C)c2c1=O [Compound P14]
≥ 80%: mortality at 200 ppm [1] | percent effect (mortality or growth inhibition) at 200 ppm [2] | percent effect (mortality or growth inhibition) at 200 ppm [3] | mortality at 200 ppm [6] | percent effect (mortality or growth inhibition) at 200 ppm [4] | percent effect (mortality, anti-feeding or growth inhibition) at 12.5 ppm [9] | percent control (mortality, anti-feedant effect or growth inhibition) at 200 ppm [5]

CCn1c(C(F)(F)F)cc2nc(-c3nc(-c4ccc(C(F)(F)F)nc4)ccc3S(=O)(=O)CC)n(C)c2c1=O [Compound P16]
≥ 80%: mortality at 200 ppm [1] | percent effect (mortality or growth inhibition) at 200 ppm [2] | percent effect (mortality or growth inhibition) at 200 ppm [3] | mortality at 200 ppm [6] | percent effect (mortality or growth inhibition) at 200 ppm [4] | mortality at 200 ppm [11] | percent control (mortality, anti-feedant effect or growth inhibition) at 200 ppm [5]

CCn1c(C(F)(F)F)cc2nc(-c3nc(-c4cnc(OC)nc4)ccc3S(=O)(=O)CC)n(C)c2c1=O [Compound P20]
≥ 80%: percent effect (mortality or growth inhibition) at 200 ppm [2] | percent effect (mortality or growth inhibition) at 200 ppm [3] | mortality at 200 ppm [6] | percent effect (mortality or growth inhibition) at 200 ppm [4] | mortality at 200 ppm [11] | percent effect (mortality, anti-feeding or growth inhibition) at 12.5 ppm [9] | percent control (mortality, anti-feedant effect or growth inhibition) at 200 ppm [5]

CCn1c(C(F)(F)F)cc2nc(-c3nc(-c4cncnc4)ccc3S(=O)(=O)CC)n(C)c2c1=O [Compound P21]
≥ 80%: mortality at 200 ppm [1] | percent effect (mortality or growth inhibition) at 200 ppm [2] | percent effect (mortality or growth inhibition) at 200 ppm [3] | mortality at 200 ppm [6] | percent effect (mortality or growth inhibition) at 200 ppm [4] | percent effect (mortality, anti-feeding or growth inhibition) at 12.5 ppm [9] | percent control (mortality, anti-feedant effect or growth inhibition) at 200 ppm [5]

CCn1c(C(F)(F)F)cc2nc(-c3nc(-c4cncn4C)ccc3S(=O)(=O)CC)n(C)c2c1=O [Compound P28]
≥ 80%: mortality at 200 ppm [1] | percent effect (mortality or growth inhibition) at 200 ppm [2] | percent effect (mortality or growth inhibition) at 200 ppm [3] | percent control (mortality, anti-feedant effect or growth inhibition) at 200 ppm [5]

CCn1c(C(F)(F)F)cc2nc(-c3nc(-c4cccc(SC)c4)ccc3S(=O)(=O)CC)n(C)c2c1=O [Compound P29]
≥ 80%: mortality at 200 ppm [1] | percent effect (mortality or growth inhibition) at 200 ppm [2] | percent effect (mortality or growth inhibition) at 200 ppm [3] | mortality at 200 ppm [6] | percent effect (mortality or growth inhibition) at 200 ppm [4] | percent control (mortality, anti-feedant effect or growth inhibition) at 200 ppm [5]

CCn1c(C(F)(F)F)cc2nc(-c3nc(-c4cc(F)ccc4F)ccc3S(=O)(=O)CC)n(C)c2c1=O [Compound P37]
≥ 80%: mortality at 200 ppm [1] | percent effect (mortality or growth inhibition) at 200 ppm [2] | percent effect (mortality or growth inhibition) at 200 ppm [3] | percent effect (mortality or growth inhibition) at 200 ppm [4] | percent effect (mortality, anti-feeding or growth inhibition) at 12.5 ppm [9] | percent control (mortality, anti-feedant effect or growth inhibition) at 200 ppm [5]

CCn1c(C(F)(F)F)cc2nc(-c3nc(-c4cnco4)ccc3S(=O)(=O)CC)n(C)c2c1=O [Compound P38]
≥ 80%: percent effect (mortality or growth inhibition) at 200 ppm [2] | percent effect (mortality or growth inhibition) at 200 ppm [3] | mortality at 200 ppm [6] | mortality at 24 ppm [7] | percent control (mortality, anti-feedant effect or growth inhibition) at 200 ppm [5]

CCn1c(C(F)(F)F)cc2nc(-c3nc(C4CC4)ccc3S(=O)(=O)CC)n(C)c2c1=O [Compound P39]
≥ 80%: percent effect (mortality or growth inhibition) at 200 ppm [2] | percent effect (mortality or growth inhibition) at 200 ppm [3] | mortality at 200 ppm [6] | percent effect (mortality or growth inhibition) at 200 ppm [4] | percent effect (mortality, anti-feeding or growth inhibition) at 12.5 ppm [9] | percent control (mortality, anti-feedant effect or growth inhibition) at 200 ppm [5]
